The results in this text go back to PMC12095705, “Diversity and enzymatic activity of Polish beehive products microbiota, and characterization of a novel β-galactosidase from Paenibacillus sp. 8” (Scientific Reports, 2025).

This assay deals with T1, BgaP β-galactosidase.
T1 construct: recombinant full-length, 675 amino acids (GenBank XED97098)
The assay can be described thus: inhibition of ONPG hydrolysis by purified enzyme, […] °C, pH […]; Lineweaver-Burk. Type of assay: biochemical, Paenibacillus sp. 8.

Consider `OC[C@H]1OC(O)[C@H](O)[C@@H](O)[C@H]1O` (some centres unmarked) [galactose], for which the affinity, expressed as Ki, was 6.99 mM.

For the compound `OC[C@H]1OC(O)[C@H](O)[C@@H](O)[C@@H]1O` (some centres unmarked) [glucose], the affinity corresponds to a Ki of 27.3 mM.

For orientation: Ki means the dissociation constant of the complex between target and ligand, obtained from inhibition or displacement. Low readings indicate tighter binding, high ones weaker binding.
